Laboratory results from US20240102051A1, “MULTIFUNCTIONAL COPOLYMERIC NANOPARTICLE” (Iran University of Medical Sciences, priority 2021, published 2024).

Tested on: P. aeruginosa
Assay: Antibacterial activity (MIC) against P. aeruginosa
Format: cell-based, Pseudomonas aeruginosa
Method: In this example, the antibacterial activity of exemplary multifunctional copolymeric nanoparticles against Gram-negative and Gram-positive strains, including P. aeruginosa, E. coli, S. aureus, and Enterococcus, were investigated based on their minimum bactericidal concentration (MBC) and minimum inhibitory concentration (MIC). Reaction time for synthesis of exemplary multifunctional copolymeric nanoparticles (AX) was varied from 1 hour to 72 hours to fine-tune the antibacterial activity of the exemplary multifunctional copolymeric nanoparticles. FIG. 11 illustrates a chart 1100 for the antibacterial activity of exemplary multifunctional copolymeric nanoparticles synthesized in different reaction times (1, 3, 8, 24, and 72 hours), consistent with one or more exemplary embodiments of the present disclosure.

How did the MIC turn out when gentamicin was run?
The MIC was over 64 µg/mL.
